The assay deals with IL-1 alpha biosynthesis in human skin cells (HaCaT keratinocytes). In words: Anti-interleukin-1alpha assay: IL-1 alpha biosynthesis in A23187-stimulated HaCaT keratinocytes, ELISA of cell lysate. Format: cell-based. The note with it: vs stimulated control (0.2 μM A23187, 6 h). The procedure: Since interleukin-1 alpha (IL-1 alpha) is a central inflammatory mediator in the skin, the inhibiting effect of the blackberry leaf extract on IL-1 alpha biosynthesis in human skin cells (HaCaT keratinocytes) was investigated. The cells are disseminated in a 96-well microtitre plate (MTP) on the previous day. On the day of the experiment, the test substance solutions are applied in medium in three different concentrations as a triple determination and incubated for 60 min at 37° C. and 5% CO2. Cellular IL-1 alpha biosynthesis is then stimulated by the addition of 0.2 μM A23187 calcium ionophore and the solutions are incubated for a further 6 h. The supernatant is drawn off and the cells undergo lysis through the addition of 1% Triton X 100. The IL-1 alpha in the cell lysate is quantified in an ELISA (human IL-1 alpha ELISA kit, EH2IL1A, Endogen).
The results set out below were obtained from two independent experiments. IL-1 alpha inhibition was calculated in comparison to the stimulated control.

As a reminder, the inhibition is the change of the read-out against control, counted positive when it falls. A higher inhibition goes with a response far below the control.

Compound `C[C@@H]1C[C@H]2[C@@H]3CCC4=CC(=O)C=C[C@]4(C)[C@@]3(F)[C@@H](O)C[C@]2(C)[C@@]1(O)C(=O)CO` [Dexamethasone] registered an inhibition at 0.01 µM (0.01 μM dexamethasone) of 28.8%. Under “0.1 μM dexamethasone”, this compound returned an inhibition at 0.1 µM of 37.7%. This compound showed an inhibition at 1 µM (1 μM dexamethasone) of 44.7%.

The record behind these values is patent US8354128B2, “Blackberry leaf extract as an active ingredient against skin irritations and inflammations” (Symrise AG, priority 2005, dated 2013).
